≈ marks a conversion by molar mass, not a printed value. Starred links: 1 amine or outer side, 2 acyl side, 3 side chain; linkers in the order of their positions; H or OH if unused. Non-standard residues stand in square brackets, D forms with d. Residues, ends and D or L forms follow the SMILES beside them. X1 = CC(Cc1ccccc1)C(N[*:1])C(=O)[*:2]; X2 = CC(C)C(N[*:1])C(C)C(=O)[*:2]; dNMeV = CN[C@@H](C(=O)O)C(C)C; dHiv = CC(C)[C@@H](O)C(=O)O; Lac = C[C@H](O)C(=O)O

By GI50 is commonly meant the concentration giving 50% growth inhibition. A high value points to lower sensitivity of the cells. Broadly, the IC50 is the concentration at which inhibition is half-maximal. Lower therefore signals greater potency.

In one assay the test system is NCI-H460. As to the kind of experiment: Cytotoxicity against human NCI-H460 cells after 48 hrs by MTT method. The class given is functional. To be noted: NCI-H460, 48 h. A general note: Tetrazolium dyes change colour on reduction, which living cells bring about.
A further assay concerns KM-20L2. Description: Cytotoxicity against human KM20L2 cells after 48 hrs by MTT method. The format is functional. To be noted: KM-20L2, 48 h.
The test system of the next assay is SF-295. As to the kind of experiment: Cytotoxicity against human SF295 cells after 48 hrs by MTT method. The class given is functional. To be noted: SF-295, 48 h.
Another assay concerns SK-MEL-5. As to the kind of experiment: Cytotoxicity against human SK-MEL-5 cells after 48 hrs by MTT method. The format is functional. The settings on record: SK-MEL-5, 48 h.
A short description of assay [1]: Cytotoxicity against human WHCO1 cells after 48 hrs by MTT method. The format is functional, cell-based. To be noted: WHCO1, 48 h.
A short description of assay [2]: Cytotoxicity against human WHCO6 cells after 48 hrs by MTT method. The settings on record: WHCO6, 48 h. The class given is functional, cell-based.
The next assay has as its system ME-180. As to the kind of experiment: Cytotoxicity against human ME180 cells after 48 hrs by MTT method. The format is functional, cell-based. To be noted: ME-180, 48 h.

In the case of `CC(C)C1NC(=O)[C@@H]2CCCN2C(=O)C(C(C)Cc2ccccc2)NC(=O)[C@@H]2CCCN2C(=O)[C@@H](C(C)C)N(C)C(=O)[C@@H](C(C)C)OC(=O)[C@@H]2CCCN2C(=O)[C@H](C)OC(=O)C1C` (some centres not stated) [DOLASTATIN 16] (cyclo([Lac]P[dHiv][dNMeV]P[X1]P[X2])), the GI50 was 0.96 ng/mL (≈ 1.09 nM) with NCI-H460, 1.2 ng/mL (≈ 1.37 nM) in the assay with KM-20L2, 5.2 ng/mL (≈ 5.92 nM) in the assay on SF-295 and 3.3 ng/mL (≈ 3.75 nM) with SK-MEL-5.
On to `CC[C@H](C)[C@H]1C(=O)N2CCC[C@H]2C(=O)NC(C(C)Cc2ccccc2)C(=O)N2CCC[C@H]2C(=O)NC(C(C)C)C(C)C(=O)OC(C)C(=O)N2CCC[C@H]2C(=O)O[C@H](C(C)C)C(=O)N1C` (some centres not stated) [HOMODOLASTATIN 16], for which the IC50 worked out at 4.3 µg/mL (≈ 4810 nM) in assay [1], 10.1 µg/mL (≈ 11300 nM) in assay [2] and 8.3 µg/mL (≈ 9290 nM) with ME-180.
